Assay results from ChEMBL document CHEMBL1158818, “Alkaloids from the sponge Monanchora unguifera” (J Nat Prod, 2005).

Columns and labels:
Format in all cases: functional, cell-based
[1] = system: P388; experiment: Cytotoxicity against mouse P388 cells
[2] = system: A549; experiment: Cytotoxicity against human A549 cells
[3] = system: HT-29; experiment: Cytotoxicity against human HT-29 cells
[4] = system: SK-MEL-28; experiment: Cytotoxicity against human SK-MEL-28 cells
[5] = system: DU-145; experiment: Cytotoxicity against human DU145 cells

Measured: IC50

CCCCCCC[C@@H]1C[C@@H]2CCC3=C(C(=O)OCCCCCCC[C@@H]4C[C@@H]5CCC6=C(C(=O)OCCCCNC(=N)N)C(C)N=C(N4)N65)C(C)N=C(N1)N32 (stereo not given in full) [BATZELLADINE J]
> 1 mg/L: all assays above
